Assay results as given in publication PMC9046974, “Construction of a Microfluidic Platform With Core-Shell CdSSe@ZnS Quantum Dot-Encoded Superparamagnetic Iron Oxide Microspheres for Screening and Locating Matrix Metalloproteinase-2 Inhibitors From Fruits of Rosa roxburghii” (Frontiers in Nutrition, 2022).

Target: T1, MS@PEI@QDs@PEI@MMP-2 (immobilized matrix metalloproteinase-2) (Homo sapiens, UniProt P08253)
T1 construct: purchased Sigma Co; host or cells: HEK 293 cells
T1 sequence (P08253 110-660): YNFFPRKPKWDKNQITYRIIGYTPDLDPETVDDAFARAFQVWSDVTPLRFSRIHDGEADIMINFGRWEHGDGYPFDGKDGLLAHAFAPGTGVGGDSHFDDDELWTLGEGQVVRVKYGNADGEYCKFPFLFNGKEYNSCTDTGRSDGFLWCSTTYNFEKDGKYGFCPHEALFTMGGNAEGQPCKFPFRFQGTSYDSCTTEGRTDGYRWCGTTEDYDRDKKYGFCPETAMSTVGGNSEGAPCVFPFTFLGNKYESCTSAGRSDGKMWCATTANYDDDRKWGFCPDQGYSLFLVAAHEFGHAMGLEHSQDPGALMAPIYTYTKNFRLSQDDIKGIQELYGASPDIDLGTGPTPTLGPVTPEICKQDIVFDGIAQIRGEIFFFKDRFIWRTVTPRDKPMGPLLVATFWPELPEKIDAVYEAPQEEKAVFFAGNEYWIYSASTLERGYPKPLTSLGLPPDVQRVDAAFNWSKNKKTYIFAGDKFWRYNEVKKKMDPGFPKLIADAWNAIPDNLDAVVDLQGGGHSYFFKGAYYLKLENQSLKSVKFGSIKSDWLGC
Test: Microfluidic chip-based ligand fishing
Type: binding
Conditions: dissociated solution after microfluidic chip-based ligand fishing
Method: All ligand fishing experiments were performed on the microfluidic chip system. The microfluidic chip system consisted of six modules, namely, a microscope stand, a light-emitting diode surface light source, a charge-coupled device (CCD) camera, a temperature controller, an automated x-y-z translation stage (Wuhan Mesovision Biotechnology Co.) for controlling the movement of the microfluidic chip, and four syringe pumps (Baoding Lange Constant Current Pump Co.). Before use, the microfluidic chip was first treated with 1% tween 80 in n-hexadecane (v/v) through port a to make the whole chip surface hydrophobic. […] Under the monitoring of the top-view CCD camera, MS@PEI@QDs@PEI@MMP-2 were infused into the upper left port b, whereas extract of R. roxburghii was infused into upper right port c at an appropriate flow rate to allow the solution to meet the MS@PEI@QDs@PEI @MMP-2 at the junction. The mixture was incubated in the channel for a period. Then, 500 μl aliquots of wash solvent (PBS buffer) were infused into the port d. At the turning point, a small ring magnet trapped the MS@PEI@QDs@PEI@MMP-2. […] The linearity was analyzed by plotting the peak area of the ellagic acid against a series of concentrations (0.009–1.00 mg·ml^−1). The lower limit of quantification was determined as the analytical concentration at an S/N ratio of 10. […] The UV spectra were monitored at 254 nm. […]

| Compound | extraction yield |
| --- | --- |
| CNC(=O)[C@H](Cc1ccccc1)NC(=O)[C@H](CC(C)C)[C@H](CSc1cccs1)C(=O)NO [Batimastat] | 76.6% |

Target: T2, matrix metalloproteinase-2 (Homo sapiens, UniProt P08253)
T2 construct: purchased not specified for the assay (Sigma Co. recombinant enzyme or a component of the Shanghai Easy Biotech Co. ELISA kit)
T2 sequence (P08253 110-660): T1 sequence (P08253 110-660)
Test: Matrix metalloproteinase-2 inhibitory assay
Type: biochemical
Conditions: MMP-2 inhibition, 30 min at 37°C, absorbance 450 nm
Method: The inhibitory effects of binding ligands were evaluated as below. […] Test components were dissolved in the buffer to yield a gradient of concentrations between 1 and 200 μM. A total of 50 μl of test components and 100 μl of the enzyme solution were added to a 96-well plate and incubated for 30 min at 37°C. Afterward, the solution in the 96-well plate was discarded. The plate was dried on water adsorbing paper. A total of 200 μl of wash solution was added to each well and incubated for 30 s. Again, the solution in the 96-well plate was abandoned. The plate was dried on water adsorbing paper. This step was carried out five times. A total of 50 μl aliquots of solution A and 50 μl aliquots of solution B were added to each well and kept in a dark place for 15 min. As a result, 50 μl aliquots of stopping solution were pipetted into each well. The plate was monitored at the absorbance of 450 nm by using an automatic microplate reader.

| Compound | IC50 |
| --- | --- |
| O=C(O[C@@H]1O[C@@H]2COC(=O)c3cc(O)c(O)c(O)c3-c3c(cc(O)c(O)c3O)C(=O)O[C@H]([C@H]1O)[C@@H]2O)c1cc(O)c(O)c(O)c1 [Corilagin] | 28.6 ± 2.83 µM |
| O=c1oc2c(O)c(O)cc3c(=O)oc4c(O)c(O)cc1c4c23 [Ellagic acid, reference compound] | 37.8 ± 1.96 µM |
| C[C@@H]1CC[C@]2(C(=O)O[C@@H]3O[C@H](CO)[C@@H](O)[C@H](O)[C@H]3O)CC[C@]3(C)C(=CC[C@@H]4[C@@]5(C)C[C@@H](O)[C@@H](O)C(C)(C)[C@@H]5CC[C@]43C)[C@@H]2[C@]1(C)O [Kajiichigoside F1] | 22 ± 2.15 µM |
| CC1(C)CC[C@]2(C(=O)O)CC[C@]3(C)C(=CC[C@@H]4[C@@]5(C)C[C@H](O)[C@H](O)[C@@](C)(C(=O)O)[C@@H]5CC[C@]43C)[C@@H]2C1 [Medicogenic acid, Medicagenic acid] | 64.1 ± 13.6 µM |
| C[C@@H]1CC[C@]2(C(=O)O[C@@H]3O[C@H](CO)[C@@H](O)[C@H](O)[C@H]3O)CC[C@]3(C)C(=CC[C@@H]4[C@@]5(C)C[C@@H](O)[C@H](O)[C@@](C)(CO)[C@@H]5CC[C@]43C)[C@@H]2[C@]1(C)O [Niga-ichigoside F1] | 20.1 ± 1.55 µM |
| C[C@@H]1CC[C@]2(C(=O)O[C@@H]3O[C@H](CO)[C@@H](O)[C@H](O)[C@H]3O)CC[C@]3(C)C(=CC[C@@H]4[C@@]5(C)C[C@@H](O)C(=O)C(C)(C)[C@@H]5CC[C@]43C)[C@@H]2[C@]1(C)O [Potentillanoside A] | 25.5 ± 3.01 µM |
| C=C1[C@H]2C3=CC[C@@H]4[C@@]5(C)C[C@@H](O)[C@H](O)[C@@](C)(CO)[C@@H]5CC[C@@]4(C)[C@]3(C)CC[C@@]2(C(=O)O[C@@H]2O[C@H](CO)[C@@H](O)[C@H](O)[C@H]2O)CC[C@H]1C [Quadranoside VIII] | 25.9 ± 5.66 µM |
| C[C@@H]1CC[C@]2(C(=O)O[C@@H]3O[C@H](CO)[C@@H](O)[C@H](O)[C@H]3O)CC[C@]3(C)C(=CC[C@@H]4[C@@]5(C)C[C@@H](O)[C@H](O)C(C)(C)[C@@H]5CC[C@]43C)[C@@H]2[C@]1(C)O [Rosamultin] | 20.7 ± 2.06 µM |
| CC1=C2[C@H](/C=C(\C)C(=O)O)CC[C@@H](C)[C@H]2CC1 [Valerenic acid] | 82.5 ± 8.87 µM |
| COC(=O)[C@@]1(C)CC[C@]2(C(=O)O[C@@H]3O[C@H](CO)[C@@H](O)[C@H](O)[C@H]3O)CC[C@]3(C)C(=CC[C@@H]4[C@@]5(C)CC[C@H](O)[C@@](C)(CO)[C@@H]5CC[C@]43C)[C@@H]2C1 [Zebirioside O] | 23.2 ± 4.49 µM |
| Oreganol A | 30.8 ± 2.13 µM |
| Peduncloside | 23.2 ± 2.53 µM |
